# Reference: ChEMBL document CHEMBL1133131, “Discovery of an orally bioavailable alkyl oxadiazole beta3 adrenergic receptor agonist” (Bioorg Med Chem Lett, 2000)
# Calls of active or inactive are those of the source. No cut-off for these calls is given here.
# How the values were obtained:
# [1] = target: T1, Beta-3 adrenergic receptor (Homo sapiens, UniProt P13945); test: Adenylyl cyclase activation as percent maximal isoproterenol stimulation of CHO cells expressing beta-3 receptor; type: functional, cell-based
# Target sequence in this assay (P13945 whole entry, looked up): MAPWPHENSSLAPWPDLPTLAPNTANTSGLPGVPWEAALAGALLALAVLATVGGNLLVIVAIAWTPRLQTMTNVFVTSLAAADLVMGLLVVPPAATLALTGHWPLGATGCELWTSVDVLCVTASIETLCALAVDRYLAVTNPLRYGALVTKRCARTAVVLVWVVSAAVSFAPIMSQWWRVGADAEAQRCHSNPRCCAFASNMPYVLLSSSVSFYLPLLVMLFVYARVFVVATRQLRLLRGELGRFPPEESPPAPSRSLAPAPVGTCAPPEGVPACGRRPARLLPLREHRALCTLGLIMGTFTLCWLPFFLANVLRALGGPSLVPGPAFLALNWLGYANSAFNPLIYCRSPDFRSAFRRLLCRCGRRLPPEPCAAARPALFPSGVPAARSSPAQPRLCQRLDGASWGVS
# [2] = target: T1, Beta-3 adrenergic receptor; test: Agonist activity as increasedn cAMP production in Chinese hamster ovary (CHO)cells expressing human beta-3 adrenergic receptor; type: functional
# Target sequence in this assay (P13945 whole entry): as the sequence (P13945 whole entry, looked up) above
# [3] = target: Beta-2 adrenergic receptor (Homo sapiens, UniProt P07550); test: Binding affinity towards Beta-2 adrenergic receptor prepared from CHO cells expressing the cloned human receptor in the presence of [125I]iodocyanopindolol; type: cell-based
# Chain of Beta-2 adrenergic receptor (P07550 whole entry): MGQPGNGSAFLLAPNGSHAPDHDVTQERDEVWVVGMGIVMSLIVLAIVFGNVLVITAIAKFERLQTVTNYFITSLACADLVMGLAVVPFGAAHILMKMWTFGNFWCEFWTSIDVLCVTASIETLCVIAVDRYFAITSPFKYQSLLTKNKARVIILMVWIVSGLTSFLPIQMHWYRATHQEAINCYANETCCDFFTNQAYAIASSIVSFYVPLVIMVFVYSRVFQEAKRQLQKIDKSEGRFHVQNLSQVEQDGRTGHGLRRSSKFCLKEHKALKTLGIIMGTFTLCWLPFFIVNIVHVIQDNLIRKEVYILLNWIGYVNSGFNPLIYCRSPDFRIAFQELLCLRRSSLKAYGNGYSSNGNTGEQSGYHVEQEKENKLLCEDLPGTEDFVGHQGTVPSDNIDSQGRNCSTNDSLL
# [4] = target: Beta-1 adrenergic receptor (Homo sapiens, UniProt P08588); test: Binding affinity towards cloned human Beta-1 adrenergic receptor prepared from CHO cells in the presence of [125I]iodocyanopindolol; type: cell-based
# Chain of Beta-1 adrenergic receptor (P08588 whole entry): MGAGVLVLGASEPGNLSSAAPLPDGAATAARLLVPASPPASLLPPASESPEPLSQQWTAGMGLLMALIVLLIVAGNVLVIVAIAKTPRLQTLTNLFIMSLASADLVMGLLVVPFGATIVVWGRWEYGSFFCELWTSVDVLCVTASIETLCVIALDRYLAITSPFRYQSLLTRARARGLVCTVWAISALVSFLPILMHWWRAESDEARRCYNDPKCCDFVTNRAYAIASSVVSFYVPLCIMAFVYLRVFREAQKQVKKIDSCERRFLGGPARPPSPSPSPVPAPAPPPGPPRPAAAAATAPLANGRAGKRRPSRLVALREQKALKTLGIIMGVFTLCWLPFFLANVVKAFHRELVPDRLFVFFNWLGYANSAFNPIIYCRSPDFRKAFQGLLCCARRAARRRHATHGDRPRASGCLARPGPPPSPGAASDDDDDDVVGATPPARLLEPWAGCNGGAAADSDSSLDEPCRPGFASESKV
# Monkey [5] = test: The compound was evaluated for dose- dependent elevation of plasma glycerol in anesthetized rhesus; type: functional; conditions: Cercopithecidae, in Macaca mulatta
# Monkey [6] = test: The compound was tested for the percent increase in heart rate at the dose level of 10 mg/kg; No significant alteration; type: functional, organism-based; set-up: dose 10 mg/kg; conditions: Cercopithecidae
# [7] = Half life in rats; type: ADME, organism-based; conditions: rat, in vivo
# [8] = Oral bioavailability of intravenously administered compound (3 mg/kg) was tested in rats; type: ADME, organism-based; conditions: rat, in vivo, intravenous
# [9] = Half life in dog; type: ADME, organism-based, Canis lupus familiaris; conditions: in vivo
# [10] = Oral bioavailability of perorally administered compound (10 mg/kg) was tested in dogs; type: ADME, organism-based, Canis lupus familiaris; conditions: dog, in vivo
Activation [1],EC50 [2],IC50 [3],IC50 [4],half-life [7],bioavailability [8],half-life [9],bioavailability [10],SMILES,ED50 (Monkey [5]),Activity (Monkey [6])
53%,0.075 µM,24 µM,56 µM,,,,,CCC(O)CCc1nc(-c2ccc(S(=O)(=O)Nc3ccc(CCNC[C@H](O)c4cccnc4)cc3)cc2)no1 (stereo not given in full),,
90%,0.054 µM,2.5 µM,9 µM,,,,,CCCCCCCCc1nc(-c2ccc(S(=O)(=O)Nc3ccc(CCNC[C@H](O)c4cccnc4)cc3)cc2)no1,,
20%,> 0.1 µM,44 µM,10 µM,,,,,CC(O)CCCc1nc(-c2ccc(S(=O)(=O)Nc3ccc(CCNC[C@H](O)c4cccnc4)cc3)cc2)no1 (stereo not given in full),,
58%,0.029 µM,1 µM,26 µM,,,,,CC(C)CCCc1nc(-c2ccc(S(=O)(=O)Nc3ccc(CCNC[C@H](O)c4cccnc4)cc3)cc2)no1,,
86%,0.032 µM,6.5 µM,55 µM,,,,,CCCCc1nc(-c2ccc(S(=O)(=O)Nc3ccc(CCNC[C@H](O)c4cccnc4)cc3)cc2)no1,,
53%,0.023 µM,3 µM,5.5 µM,2.4 h,36%,3.6 h,62%,CCCCCc1nc(-c2ccc(S(=O)(=O)Nc3ccc(CCNC[C@H](O)c4cccnc4)cc3)cc2)no1,0.22 mg/kg,inactive
69%,0.13 µM,57 µM,70 µM,,,,,CC(=O)CCCc1nc(-c2ccc(S(=O)(=O)Nc3ccc(CCNC[C@H](O)c4cccnc4)cc3)cc2)no1,,
75%,0.066 µM,12 µM,25 µM,,,,,CCC(=O)CCc1nc(-c2ccc(S(=O)(=O)Nc3ccc(CCNC[C@H](O)c4cccnc4)cc3)cc2)no1,,
15%,> 0.1 µM,10 µM,10 µM,,,,,Cc1nc(-c2ccc(S(=O)(=O)Nc3ccc(CCNC[C@H](O)c4cccnc4)cc3)cc2)no1,,
86%,0.039 µM,1.41 µM,2 µM,,,,,CCCCCCCc1nc(-c2ccc(S(=O)(=O)Nc3ccc(CCNC[C@H](O)c4cccnc4)cc3)cc2)no1,,
49%,0.12 µM,51 µM,30 µM,,,,,O=C(CCc1nc(-c2ccc(S(=O)(=O)Nc3ccc(CCNC[C@H](O)c4cccnc4)cc3)cc2)no1)N1CCCC1,,
70%,0.087 µM,8.5 µM,8.5 µM,,,,,CCCc1nc(-c2ccc(S(=O)(=O)Nc3ccc(CCNC[C@H](O)c4cccnc4)cc3)cc2)no1,,
70%,0.013 µM,2.67 µM,8.33 µM,,,,,O=S(=O)(Nc1ccc(CCNC[C@H](O)c2cccnc2)cc1)c1ccc(-c2noc(CCOC3CCCC3)n2)cc1,,
79%,0.035 µM,1 µM,2 µM,,,,,CCCCCCc1nc(-c2ccc(S(=O)(=O)Nc3ccc(CCNC[C@H](O)c4cccnc4)cc3)cc2)no1,,

SMILES,Activation [1],EC50 [2],IC50 [3],IC50 [4],half-life [7],bioavailability [8],half-life [9],bioavailability [10],ED50 (Monkey [5]),Activity (Monkey [6])
O=S(=O)(Nc1ccc(CCNC[C@H](O)c2cccnc2)cc1)c1ccc(-c2noc(CCCC3CCCCC3)n2)cc1,62%,0.019 µM,0.66 µM,1.97 µM,,,,,,
O=S(=O)(Nc1ccc(CCNC[C@H](O)c2cccnc2)cc1)c1ccc(-c2noc(CCCC3CCCC3)n2)cc1,83%,0.015 µM,0.962 µM,5.5 µM,,,,,,
